Experiment [1] addresses T1, 5-hydroxytryptamine receptor 1B (Homo sapiens, UniProt P28222). The experiment is described as follows: Ability to inhibit the forskolin-stimulated c-AMP formation mediated by human 5-hydroxytryptamine 1B receptor in CHO-K1 cells. The class given is functional, cell-based.
In experiment [2] the target is T1, 5-hydroxytryptamine receptor 1B. The experiment is described as follows: Inhibition of forskolin-stimulated c-AMP formation by human 5-hydroxytryptamine 1B receptor expressed in CHO-K1 cells. The format is functional, cell-based.
Experiment [3] has as its target 5-hydroxytryptamine receptor 1D (Homo sapiens, UniProt P28221). The experiment is described as follows: Binding affinity at cloned human 5-hydroxytryptamine 1D receptor.
The target in experiment [4] is T2, 5-hydroxytryptamine receptor 1A (Homo sapiens, UniProt P08908).
T2 sequence (P08908 whole entry): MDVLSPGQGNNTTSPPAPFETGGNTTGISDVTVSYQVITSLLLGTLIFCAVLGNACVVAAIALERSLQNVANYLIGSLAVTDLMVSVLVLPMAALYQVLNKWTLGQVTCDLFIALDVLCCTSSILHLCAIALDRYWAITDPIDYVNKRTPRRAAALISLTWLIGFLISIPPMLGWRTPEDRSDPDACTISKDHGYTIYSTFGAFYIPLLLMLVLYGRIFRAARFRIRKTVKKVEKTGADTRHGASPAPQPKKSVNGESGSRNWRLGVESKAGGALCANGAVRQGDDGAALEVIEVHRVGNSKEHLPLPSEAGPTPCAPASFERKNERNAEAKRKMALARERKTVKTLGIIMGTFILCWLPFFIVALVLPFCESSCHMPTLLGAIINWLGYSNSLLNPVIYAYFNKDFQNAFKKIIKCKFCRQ
The experiment is described as follows: Ability to inhibit the forskolin-stimulated c-AMP formation mediated by human 5-hydroxytryptamine 1A receptor in CHO-K1 cells. The format is functional, cell-based.

Chain of 5-hydroxytryptamine receptor 1D (P28221 whole entry): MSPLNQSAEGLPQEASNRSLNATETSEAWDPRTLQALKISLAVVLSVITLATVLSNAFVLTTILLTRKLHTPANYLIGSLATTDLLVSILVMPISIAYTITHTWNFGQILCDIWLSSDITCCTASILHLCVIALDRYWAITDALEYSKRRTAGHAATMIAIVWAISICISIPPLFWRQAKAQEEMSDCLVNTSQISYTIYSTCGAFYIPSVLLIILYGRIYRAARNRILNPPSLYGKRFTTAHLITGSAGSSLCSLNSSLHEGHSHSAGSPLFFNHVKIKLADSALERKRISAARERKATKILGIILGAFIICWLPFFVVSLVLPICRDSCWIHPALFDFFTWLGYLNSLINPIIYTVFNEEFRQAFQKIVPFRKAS
T1 sequence (P28222 whole entry): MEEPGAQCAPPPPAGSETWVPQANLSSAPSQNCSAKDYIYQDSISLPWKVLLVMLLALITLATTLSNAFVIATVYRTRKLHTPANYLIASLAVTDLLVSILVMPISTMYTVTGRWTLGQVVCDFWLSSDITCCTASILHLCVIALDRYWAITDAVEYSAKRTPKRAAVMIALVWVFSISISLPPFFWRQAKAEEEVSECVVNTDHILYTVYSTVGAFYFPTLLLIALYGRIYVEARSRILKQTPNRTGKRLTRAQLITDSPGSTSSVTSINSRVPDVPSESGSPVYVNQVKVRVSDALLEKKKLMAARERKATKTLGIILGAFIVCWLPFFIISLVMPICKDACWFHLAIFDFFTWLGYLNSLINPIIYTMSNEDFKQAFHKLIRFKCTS

For `NCCc1c[nH]c2ccc(OCc3ccc(COc4ccc5[nH]cc(CCN)c5c4)cc3)cc12`, the values for the Ki in experiment [1], in experiment [3] and in experiment [4] were 0.1 nM, 0.11 nM and 1.6 nM, respectively. Further, the concentration for a half-maximal effect (EC50) – broadly, the concentration giving half of the maximal effect – in experiment [2] came to 3 nM.
The like results for `NCCc1c[nH]c2ccc(OCCN3CCN(CCOc4ccc5[nH]cc(CCN)c5c4)CC3)cc12` were, in that order, 0.26 nM, 0.35 nM, 9.5 nM and 0.19 nM.
The corresponding values for `NCCc1c[nH]c2ccc(OCC(=O)NCCCNC(=O)COc3ccc4[nH]cc(CCN)c4c3)cc12` are 0.3 nM, 0.3 nM, 8.6 nM and 0.09 nM.
The like results for `NCCc1c[nH]c2ccc(OCC(=O)N3CCN(C(=O)COc4ccc5[nH]cc(CCN)c5c4)CC3)cc12` were, in that order, 0.36 nM, 0.42 nM, 20 nM and 0.28 nM.
As for `NCCc1c[nH]c2ccc(OCC(=O)N3CCNCC3)cc12`, the inhibition constant Ki in experiment [1], in experiment [3] and in experiment [4] was over 100 nM each time.
In the case of `NCCc1c[nH]c2ccc(OCCNC(=O)NCCOc3ccc4[nH]cc(CCN)c4c3)cc12`, the Ki (as a rule, the dissociation constant of the complex between target and ligand, obtained from inhibition or displacement) in experiment [1] came to 0.2 nM; in experiment [3], 0.4 nM; in experiment [4], 2.2 nM. Also, it took 1.6 nM to reach a half-maximal effect in experiment [2] (EC50).
Turning to `NCCc1c[nH]c2ccc(OCCN3CCN(C(=O)COc4ccc5[nH]cc(CCN)c5c4)CC3)cc12`, the Ki in experiment [1] is 0.11 nM; in experiment [3], 0.16 nM; in experiment [4], 9.5 nM. Further, the concentration giving a half-maximal response (EC50) in experiment [2] worked out at 0.22 nM.
The corresponding values for `NCCc1c[nH]c2ccc(OCCNC(=O)COc3ccc4[nH]cc(CCN)c4c3)cc12` are 0.16 nM, 0.18 nM, 2.2 nM and 0.44 nM.
Consider `NCCc1c[nH]c2ccc(OCc3cccc(COc4ccc5[nH]cc(CCN)c5c4)c3)cc12`, for which the Ki in experiment [1] worked out at 0.32 nM; in experiment [3], 0.35 nM; in experiment [4], 1 nM. For the same compound, in experiment [2], it took 0.85 nM to reach a half-maximal effect (EC50).
Regarding `NCCc1c[nH]c2ccc(OCc3ccccc3COc3ccc4[nH]cc(CCN)c4c3)cc12`, the inhibition constant (Ki) in experiment [1] turned out to be 1.7 nM; in experiment [3], 1.5 nM; in experiment [4], 4.3 nM. In experiment [2], this compound had an EC50 of 2.07 nM.
`NCCc1c[nH]c2ccc(OCCCCCCNS(=O)(=O)c3ccc(-c4ccc(S(=O)(=O)NCCCCCCOc5ccc6[nH]cc(CCN)c6c5)cc4)cc3)cc12`: the figures for the Ki in experiment [1], in experiment [3] and in experiment [4] were 0.38 nM, 0.45 nM and 1.66 nM, respectively. The same compound displayed an EC50 in experiment [2] of 0.1 nM.
As for `NCCc1c[nH]c2ccc(OCCOc3ccc4[nH]cc(CCN)c4c3)cc12`, the Ki in experiment [1] came out at 2.5 nM; in experiment [3] it was 1 nM; in experiment [4] it was 14.3 nM. This compound returned an EC50 in experiment [2] of 4 nM.
With `NCCc1c[nH]c2ccc(OCC(=O)Nc3ccc(NC(=O)COc4ccc5[nH]cc(CCN)c5c4)cc3)cc12`, the Ki in experiment [1] was determined as 0.27 nM; in experiment [3] it was 0.11 nM; in experiment [4] it was 4.06 nM. In experiment [2], this compound registered a half-maximal effective concentration (EC50) of 0.3 nM.
Consider `NCCc1c[nH]c2ccc(OCC(=O)Nc3ccc(N4CCN(C(=O)COc5ccc6[nH]cc(CCN)c6c5)CC4)cc3)cc12`, for which the figures for the Ki in experiment [1], in experiment [3] and in experiment [4] were 0.14 nM, 0.09 nM and 9.8 nM, respectively. In experiment [2], this compound showed an EC50 of 0.4 nM.
Take `NCCc1c[nH]c2ccc(OCC(=O)N3CCC(C4CCN(C(=O)COc5ccc6[nH]cc(CCN)c6c5)CC4)CC3)cc12`: the inhibition constant (Ki) worked out at 0.22 nM in experiment [1], 0.27 nM in experiment [3] and 4 nM in experiment [4]. The compound further gave a concentration giving a half-maximal response (EC50) in experiment [2] of 0.26 nM.
In the case of `NCCc1c[nH]c2ccc(OCCCCCCOc3ccc4[nH]cc(CCN)c4c3)cc12`, the Ki in experiment [1] came to 0.5 nM; in experiment [3] it was 0.46 nM; in experiment [4] it was 1.8 nM. In addition, the midpoint of the response in experiment [2], the EC50, lay at 0.6 nM.

The values above are taken from ChEMBL document CHEMBL1129591 (J Med Chem, 1996).
